Experimental findings from paper doi:10.1101/2023.07.12.548622v2 (biorxiv, 2023) are described below.

A value given as a limit tells only on which side of the number the result lay.

Assay [1] concerns the target T1, hACKR3 (atypical chemokine receptor 3; CXCR7) (Homo sapiens, UniProt P25106). The experiment in a line: [3H]VUF15485 displacement, HEK293T membranes. As to conditions: for pIC50: 5 nM [3H]VUF15485, 25 °C, 2 h. The assay is classed as binding.
Assay [2] concerns the target T1, hACKR3 (atypical chemokine receptor 3; CXCR7). The assay can be described thus: BRET beta-arrestin2 recruitment, HEK293T. In kind it is cell-based.
Assay [3] shares this target. The experiment in a line: […]CXCL12 displacement, intact HEK293T cells. In kind it is cell-based.
The target is the same in assay [4]. The assay can be described thus: [3H]VUF15485 saturation binding, HEK293T membranes.
A further assay deals with mouse ACKR3 (mACKR3) (Mus musculus, UniProt P56485). The experiment in a line: NanoBiT beta-arrestin2 recruitment, HEK293T. In kind it is cell-based.
Sequence of mouse ACKR3 (mACKR3) (P56485 whole entry): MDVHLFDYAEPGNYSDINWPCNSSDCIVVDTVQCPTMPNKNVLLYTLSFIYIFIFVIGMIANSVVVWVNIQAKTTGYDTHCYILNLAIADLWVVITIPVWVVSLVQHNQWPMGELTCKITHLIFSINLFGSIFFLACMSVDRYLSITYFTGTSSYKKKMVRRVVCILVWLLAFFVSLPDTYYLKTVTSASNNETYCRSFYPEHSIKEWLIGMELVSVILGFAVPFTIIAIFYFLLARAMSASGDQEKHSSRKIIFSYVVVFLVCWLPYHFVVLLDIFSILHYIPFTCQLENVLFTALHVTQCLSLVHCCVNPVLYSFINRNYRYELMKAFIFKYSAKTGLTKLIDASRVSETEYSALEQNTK
Assay [5] addresses hACKR3 (atypical chemokine receptor 3; CXCR7) (Homo sapiens, UniProt P25106, V217A). The experiment in a line: homologous [3H]VUF15485 competition binding, HEK293T membranes.
Assay [6] has as its target hACKR3 (atypical chemokine receptor 3; CXCR7) (Homo sapiens, UniProt P25106, E213Q). Described as above.
In assay [7] the target is hACKR3 (atypical chemokine receptor 3; CXCR7) (Homo sapiens, UniProt P25106, Q301E). Described as above.
Sequence of hACKR3 (atypical chemokine receptor 3; CXCR7) (Homo sapiens, UniProt P25106, Q301E) (P25106 whole entry Q301E): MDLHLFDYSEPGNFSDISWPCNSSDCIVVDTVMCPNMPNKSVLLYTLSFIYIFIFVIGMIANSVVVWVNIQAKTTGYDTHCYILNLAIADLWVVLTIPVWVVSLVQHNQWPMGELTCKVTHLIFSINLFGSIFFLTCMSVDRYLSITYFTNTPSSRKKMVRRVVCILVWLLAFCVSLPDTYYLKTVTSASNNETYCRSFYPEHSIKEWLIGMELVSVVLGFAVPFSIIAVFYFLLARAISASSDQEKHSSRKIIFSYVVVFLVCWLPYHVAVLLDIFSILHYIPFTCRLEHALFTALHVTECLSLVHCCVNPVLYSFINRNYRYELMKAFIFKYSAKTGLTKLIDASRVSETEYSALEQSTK
The target in assay [8] is hACKR3 (atypical chemokine receptor 3; CXCR7) (Homo sapiens, UniProt P25106, H298A). Described as above.
Sequence of hACKR3 (atypical chemokine receptor 3; CXCR7) (Homo sapiens, UniProt P25106, H298A) (P25106 whole entry H298A): as the sequence (P25106 whole entry Q301E) above, with H298A, E301Q counted along it
Assay [9] has as its target T1, hACKR3 (atypical chemokine receptor 3; CXCR7). The assay is described as above.
Assay [10] concerns the target hACKR3 (atypical chemokine receptor 3; CXCR7) (Homo sapiens, UniProt P25106, D275N). Described as above.
In assay [11] the target is hACKR3 (atypical chemokine receptor 3; CXCR7) (Homo sapiens, UniProt P25106, Y51A). Described as above.
Sequence of hACKR3 (atypical chemokine receptor 3; CXCR7) (Homo sapiens, UniProt P25106, Y51A) (P25106 whole entry Y51A): as the sequence (P25106 whole entry Q301E) above, with Y51A, E301Q counted along it
Assay [12] deals with hACKR3 (atypical chemokine receptor 3; CXCR7) (Homo sapiens, UniProt P25106, S103D). The description is as above.
Sequence of hACKR3 (atypical chemokine receptor 3; CXCR7) (Homo sapiens, UniProt P25106, S103D) (P25106 whole entry S103D): as the sequence (P25106 whole entry Q301E) above, with S103D, E301Q counted along it
In assay [13] the target is hACKR3 (atypical chemokine receptor 3; CXCR7) (Homo sapiens, UniProt P25106, H121A). The description is as above.
Sequence of hACKR3 (atypical chemokine receptor 3; CXCR7) (Homo sapiens, UniProt P25106, H121A) (P25106 whole entry H121A): as the sequence (P25106 whole entry Q301E) above, with H121A, E301Q counted along it

T1 sequence (P25106 whole entry): as the sequence (P25106 whole entry Q301E) above, with E301Q counted along it
Sequence of hACKR3 (atypical chemokine receptor 3; CXCR7) (Homo sapiens, UniProt P25106, V217A) (P25106 whole entry V217A): as the sequence (P25106 whole entry Q301E) above, with V217A, E301Q counted along it
Sequence of hACKR3 (atypical chemokine receptor 3; CXCR7) (Homo sapiens, UniProt P25106, D275N) (P25106 whole entry D275N): as the sequence (P25106 whole entry Q301E) above, with D275N, E301Q counted along it
Sequence of hACKR3 (atypical chemokine receptor 3; CXCR7) (Homo sapiens, UniProt P25106, E213Q) (P25106 whole entry E213Q): as the sequence (P25106 whole entry Q301E) above, with E213Q, E301Q counted along it

The IC50 is the midpoint of a concentration-inhibition curve. Higher therefore signals lower potency. For `Oc1ccc(CN2CCC(CNCc3ccccc3)CC2)cc1` [9 in Adlere et al., 2019, VUF16774], the IC50 in [1] is 10 µM.

A word on the pIC50: it is the IC50 on a negative log10 scale, so that one unit is a factor of ten. The molecule `CC1(C)[C@H]2CC=C(C[N+](C)(C)Cc3ccc(-c4ccccc4Br)cc3)[C@@H]1C2.[I-]` [38 in Wijtmans et al., 2012b, VUF11222] returned a pIC50 in assay [1] of 5.8 ± 0.2.

Regarding `CC1(C)[C@H]2CC=C(C[N+](C)(C)Cc3ccc(-c4ccccc4I)cc3)[C@@H]1C2.[I-]` [39 in Wijtmans et al., 2012b, VUF11418], the pIC50 in assay [1] stood at 5.9 ± 0.3.

`c1cc(CN2CCCNCCNCCCNCC2)ccc1CN1CCCNCCNCCCNCC1` [AMD3100] showed an IC50 in assay [1] not below 100 µM.

On to `CC1(C)CN2C(CS/C(=N\C3CCCCC3)NC3CCCCC3)=CSC2=N1` [IT1t], for which, in assay [1], the IC50 is not below 100 µM.

As a reminder, the EC50 is the midpoint of the concentration-response curve. Read a high EC50 as a need for much substance. With `COc1cc(C(=O)N(CCC2CCCN2C)C/C(C)=C/c2ccccc2F)cc(OC)c1OC` (stereo not shown) [VUF11207], the half-maximal effective concentration (EC50) in assay [2] was 0.0316 µM. Besides, the IC50 in assay [3] was 0.01 µM.

`CCNC(=O)c1cnc(N2CCN(C3CCN(Cc4ccc(Cl)cc4)CC3)C(CC)C2)c(Cl)c1` (stereo not shown) [VUF11211] registered a pIC50 in assay [1] of 4.7 ± 0.2.

In [2], `COc1cc(C(=O)N(CC[C@@H]2CCCN2C)C/C(C)=C/c2ccccc2F)cc(OC)c1OC` [VUF13744] gave an EC50 of 0.0398 µM. This molecule also had an IC50 in assay [3] of 0.02 µM.

A word on the Kd: it is the concentration at which binding is half-saturated. Broadly, the Ki is a dissociation constant, usually derived from enzyme kinetics or from competition with a known ligand. A lower Ki goes with tighter binding. In [4], `COc1cc(C(=O)N(CC[C@H]2CCCN2C)C/C(C)=C/c2ccccc2F)cc(OC)c1OC` [VUF15485, (R,E)-N-(3-(2-fluorophenyl)-2-methylallyl)-3,4,5-trimethoxy-N-(2-(1-methylpyrrolidin-2-yl)ethyl)benzamide] came in with a dissociation constant Kd of 0.016 ± 0.0024 µM. Also, the EC50 in assay [2] was 0.0251 µM; on mouse ACKR3 (mACKR3), 0.02 µM. For the same molecule, the Ki in assay [5] was 0.038 µM; in [6] it was 0.0105 µM; in assay [7] it was 0.017 µM; in [8], 0.0447 µM; in assay [9], 0.0245 µM; in assay [10], 0.0186 µM. In addition, the inhibitory constant (Ki) in assay [11] is 0.049 µM; in assay [12], 0.0955 µM; in [13], 0.055 µM. The IC50 in assay [3] is 0.00501 µM.

On to VUF10990 [10q in Wijtmans et al., 2011], for which the negative logarithm of the IC50 (pIC50) in assay [1] turned out to be 5.9 ± 0.1.

VUF11403 [30 in Wijtmans et al., 2012a]: the pIC50 in [1] is given as 7.9 ± 0.1.

With VUF16545 [1 in Uto-Konimi et al., 2013], the pIC50 in [1] was found to be 7.8 ± 0.1.

VUF16771 [28 in Adlere et al., 2019] displayed a negative logarithm of the IC50 (pIC50) in assay [1] of 5.8 ± 0.1.

As for VUF16779 [22 in Adlere et al., 2019], in [1], the pIC50 turned out to be 6.0 ± 0.1.
